Data as given in PMC7658068, “Effects of a novel variant of the yeast γ-glutamyl kinase Pro1 on its enzymatic activity and sake brewing” (Journal of Industrial Microbiology & Biotechnology, 2020).

Columns and labels:
[1] = target: T1, γ-glutamyl kinase Pro1 (GK) (Saccharomyces cerevisiae, UniProt P32264); test: PK/LDH-coupled ADP assay, NADH at […] nm; format: biochemical; set-up: full-length ORF in pET15b (NdeI/XhoI), His-tag, E. coli BL21(DE3), Ni Sepharose; tag removal not mentioned; settings: 400 mM sodium glutamate, 5 mM ATP, 10 mM MgCl2, 100 mM HEPES-NaOH pH 7.4, 30 °C; no proline
T1 sequence (P32264 1-428): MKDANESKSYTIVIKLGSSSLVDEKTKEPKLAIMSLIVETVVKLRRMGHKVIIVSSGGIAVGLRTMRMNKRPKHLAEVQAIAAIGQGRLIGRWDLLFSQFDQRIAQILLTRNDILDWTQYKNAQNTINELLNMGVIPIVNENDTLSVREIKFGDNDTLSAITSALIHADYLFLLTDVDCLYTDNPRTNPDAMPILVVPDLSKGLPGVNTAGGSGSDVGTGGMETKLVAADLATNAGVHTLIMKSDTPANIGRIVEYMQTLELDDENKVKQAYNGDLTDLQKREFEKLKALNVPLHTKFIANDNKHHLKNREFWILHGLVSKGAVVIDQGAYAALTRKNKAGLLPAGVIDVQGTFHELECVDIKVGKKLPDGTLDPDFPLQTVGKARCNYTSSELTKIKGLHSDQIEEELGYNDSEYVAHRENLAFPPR

[2] = target: γ-glutamyl kinase Pro1 (GK) (Saccharomyces cerevisiae, UniProt P32264, I150T); test: biochemical; settings: read-out: relative activity at 100 mM proline
Sequence of γ-glutamyl kinase Pro1 (GK) (Saccharomyces cerevisiae, UniProt P32264, I150T) (P32264 whole entry I150T): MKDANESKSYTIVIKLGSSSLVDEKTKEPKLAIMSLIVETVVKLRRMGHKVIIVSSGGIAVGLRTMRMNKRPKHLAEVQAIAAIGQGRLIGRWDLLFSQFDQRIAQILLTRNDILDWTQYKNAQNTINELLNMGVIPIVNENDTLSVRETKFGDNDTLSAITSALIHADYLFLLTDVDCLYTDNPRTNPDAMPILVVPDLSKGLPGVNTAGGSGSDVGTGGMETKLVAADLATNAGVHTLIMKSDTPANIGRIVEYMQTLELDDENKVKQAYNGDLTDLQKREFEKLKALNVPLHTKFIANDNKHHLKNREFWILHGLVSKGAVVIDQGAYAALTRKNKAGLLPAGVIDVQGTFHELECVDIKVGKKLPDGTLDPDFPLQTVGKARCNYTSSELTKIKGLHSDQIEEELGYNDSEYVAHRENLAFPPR

[3] = target: T1, γ-glutamyl kinase Pro1 (GK); settings: 400 mM sodium glutamate, 5 mM ATP, 10 mM MgCl2, 100 mM HEPES-NaOH pH 7.4, 30 °C; allosteric feedback inhibition
[4] = target: γ-glutamyl kinase Pro1 (GK) (Saccharomyces cerevisiae, UniProt P32264, Q79H); test: biochemical; settings: read-out: relative activity at 100 mM proline
Sequence of γ-glutamyl kinase Pro1 (GK) (Saccharomyces cerevisiae, UniProt P32264, Q79H) (P32264 whole entry Q79H): as the sequence (P32264 whole entry I150T) above, with Q79H, T150I counted along it

activity at 100000 µM [2] | activity at 100000 µM [4] | SMILES | PK/LDH-coupled ADP assay, NADH at 340 nm [1] | relative activity with 0-5 mM proline [3]
 |  | Nc1ncnc2c1ncn2[C@@H]1O[C@H](COP(=O)(O)OP(=O)(O)OP(=O)(O)O)[C@@H](O)[C@H]1O [ATP] | GK activity was measured by the production of ADP in an enzyme-coupled system | 
 |  | N[C@@H](CCC(=O)O)C(=O)O [glutamate] | the reaction was initiated by the addition of sodium glutamate | 
59% | 96% | O=C(O)[C@@H]1CCCN1 [proline] |  | in the presence of proline, the GK activity of WT was markedly inhibited
